Laboratory results taken from patent US20200375980A1, “VETERINARY ANTIPROLACTINIC COMPOSITION” (CEVA SANTE ANIMALE, priority 2018, published 2020).

Tested on: Primiparous sows
Assay: Proof of concept study, WOI (weaning to oestrus interval) in primiparous sows
Format: in vivo, Sus scrofa domesticus
Protocol: All sows included in this study were recruited from a single farm having an historical mean of WOI of 5.4 days, and a percentage of delayed oestrus (8 days) of 7.9%. Weaning was set after about 3 weeks of lactation. Primiparous sows (with normal health status and normal farrowing) were allocated into three groups: Cab_0 (n=19 sows): 5.6 μg/kg of cabergoline by intramuscular injection at weaning day (day 0) in sows, i.e. at the end of lactation, without suckling piglets. Cab_2 (n=30 sows): 5.6 μg/kg of cabergoline by intramuscular injection 2 days before weaning (day-2) in sows, i.e. lactation still pending with suckling piglets. Negative control group (n=29 sows): equivalent dose/volume of a ‘true’ placebo by intramuscular injection at Day-2 and day 0.

[1] = group Cab_0: 5.6 μg/kg intramuscular at weaning day (day 0)
[2] = group Cab_0: 5.6 μg/kg intramuscular at weaning day (day 0), n=19 sows
[3] = group Cab_2: 5.6 μg/kg intramuscular 2 days before weaning (day-2), n=30 sows

Structure (SMILES): C=CCN1C[C@H](C(=O)N(CCCN(C)C)C(=O)NCC)C[C@@H]2c3cccc4[nH]cc(c34)C[C@H]21 [cabergoline, 1-[(6-allylergolin-8ß-yl)-carbonyl]-1-[3-(dimethylamino)propyl]-3-ethylurea]
- impact of the treatment on fertility (all sows diagnosed positively pregnant after artificial insemination following oestrus detection, Cab_0 and Cab_2 groups): no negative impact
- sows exhibiting delayed oestrus (after or equal 8 days), number of sows per group [1]: 1/19
- sows exhibiting delayed oestrus (after or equal 8 days), percentage [1]: 5.3%
- number of sows in heats, WOI 8-14 days [2]: 1
- number of sows in heats, WOI 3 days [2]: 1
- number of sows in heats, WOI 4 days [2]: 6
- number of sows in heats, WOI 5 days [2]: 8
- number of sows in heats, WOI 6 days [2]: 2
- number of sows in heats, WOI 7 days [2]: 1
- delayed oestrus (after or equal 8 days) (group Cab_2: 5.6 μg/kg intramuscular 2 days before weaning (day-2)): no delayed oestrus
- number of sows in heats, WOI 3 days [3]: 2
- number of sows in heats, WOI 4 days [3]: 13
- number of sows in heats, WOI 5 days [3]: 10
- number of sows in heats, WOI 6 days [3]: 5
- number of sows in heats, WOI 7 days [3]: 0
